Assay: in vitro
Settings: human, hela cells, % viability

Compound	viability at 28.5 h, 10 µM [%]
CCOc1cc(OCC)cc(C(=O)N2CCC3(CC2)CC(=O)c2cc(OCC)ccc2O3)c1 [CBK168013]	87.2
Cn1c(N2CC[C@H](O)C2)nc2cc(C(=O)NCC3CC3)ccc21 [CBK307164]	92.1
CSc1nc(N)nc2sc3c(O)cc(=O)[nH]c3c12 [CBK267457]	105
O=C(CSc1ncnc2c1cnn2-c1ccccc1)Nc1ccccc1 [CBK269408]	96.4
CCN(CC)CCNc1cc(C)nc2c1C(=O)C(=O)C=C2N1CCCCC1 [CBK265049]	89.5
O=C(NC1CCCC1)c1ccncc1 [CBK143916]	117
O=C(CN1C(=O)c2ccccc2C1=O)Nc1nc(-c2ccccc2)cs1 [CBK287343]	106
CC(C)(C)NC(=O)COc1ccc(CNCc2ccc(C(=O)O)cc2)cc1 [CBK287204]	78.1
O=C(CSc1nnc2ccc(-c3ccccc3)nn12)NCc1ccccc1 [CBK287677]	67.6
Nc1ccc(-c2cncc(N3CCN(c4ccncc4)CC3)n2)cc1 [CBK065681]	97
O=C(CSc1nc2sc3c(c2c(=O)n1-c1ccccc1)CCCC3)NCCc1ccccc1 [CBK263280]	93.7
CC(NC(=O)c1cc(C(F)(F)F)[nH]n1)c1ccccn1 (stereo not drawn) [CBK281712]	84.8
O=C(Cc1ccccc1)Nc1ccc2[nH]ncc2c1 [CBK288211]	104
Cc1ccccc1Cc1cccc(C2CCN(C(=O)Cc3ccccc3)CC2)n1 [CBK285625]	94.7
O=C(c1ccco1)N1CCC2(CC1)Nc1cccnc1-n1cccc12 [CBK284506]	85.3
Cc1ccc(S(=O)(=O)NC(=O)Nc2cccc(NC(=O)NS(=O)(=O)c3ccc(C)cc3)n2)cc1 [CBK296102]	103
CCCNC(=O)c1cc(C2CCCN(Cc3ccc(F)cc3)C2)no1 (stereo not drawn) [CBK283387]	94
CCCNc1cncc(-c2cccc(F)c2)n1 [CBK065441]	97.3
Cn1c(SCC(=O)Nc2c(F)cc(F)cc2Br)nnc1-c1cccnc1 [CBK267583]	90.8
O=c1c2cc(F)ccc2nc2n1CCN(Cc1cccs1)CC2 [CBK284859]	110
NC(=O)c1nc(-c2ccco2)nc2c1[nH]c(=O)n2-c1ccc(Cl)cc1 [CBK287545]	91.2
CCOc1ccc(NC(NC(=O)Nc2ccccc2)C(Cl)(Cl)Cl)cc1 (stereo not drawn) [CBK261294]	99.8

Compound	viability at 28.5 h, 10 µM [%]
Cc1ccc(S(=O)(=O)Nc2ccccc2CNc2ccc(Br)cc2)cc1 [CBK264214]	94.5
CC1(C(=O)NC(c2ccncc2)c2ccc(Cl)cc2)CCCO1 (stereo not drawn) [CBK282710]	89.5
COC[C@H]1CCCN1C(=O)Cn1[nH]c(C)c(Cc2c(Cl)cccc2Cl)c1=O [CBK115407]	103
CCOc1ccc(-c2ccnc(N3CCCC(C)(O)C3)n2)cc1C(=O)O (stereo not drawn) [CBK307652]	117
O=C(O)C[C@@H]1CCN(C(=O)NCc2ccccc2)C[C@@H]1CC1=NCCc2ccccc21 [CBK289161]	94.7
Cc1nc(CN2CCN(CCc3ccccc3)CC2)cs1 [CBK126457]	87.6
CCN(C(C)=O)c1nc(CN2CCOC(c3ccc(F)cc3)C2)cs1 (stereo not drawn) [CBK306213]	94.3
CC(C)c1ccc(CNC(=O)c2ccc3[nH]ccc3c2)cc1 [CBK161754]	96.1
c1coc(CNc2cncc(-c3cccc4ccccc34)n2)c1 [CBK065573]	115
Nc1ncc(-c2ccc(C(=O)N3CCOCC3)cc2)nc1-c1ccsc1 [CBK200422]	110
COc1ccccc1C(CN)C1CCCCC1 (stereo not drawn) [CBK009878]	99.7
CCOc1ccc2c(c1)-c1c(ssc1=S)C(C)(C)N2C(=O)CSc1nnc[nH]1 [CBK262680]	98.6
O=C([C@@H]1Cc2[nH]cnc2CN1Cc1cc2ccccc2o1)N1CCOCC1 [CBK288977]	114
O=C(c1ccccc1)c1ccc(OCC(O)CN2CCN(c3ccccn3)CC2)cc1 (stereo not drawn) [CBK266513]	98.3
O=C(O)CCc1ccc(-c2ccc(F)cc2)n1CC1CCCO1 (stereo not drawn) [CBK268988]	86.5
N#CC1=C(N)n2c(s/c(=C\c3ccncc3)c2=O)=C(C#N)C1c1ccncc1 (stereo not drawn) [CBK262563]	96
O=C(C1C2CCCCC21)N1CCC(Oc2ccc(F)cc2)CC1 (stereo not drawn) [CBK282065]	92.1
O=C(CCc1ccncc1)N1CCCCC1CN1CCCCCC1 (stereo not drawn) [CBK282102]	99.6
O=C(O)c1ccc(Nc2ncnc3c2oc2ccccc23)cc1 [CBK269825C]	92
O=C1NC2(CCN(C(=O)c3ccccc3F)CC2)Oc2ccccc21 [CBK283997]	81.9
CCC(=O)Nc1nc(-c2ccc(C(=O)OC)cc2)nc2c1c(=O)oc1ccccc12 [CBK268449]	110
Cc1cc(C)n2c(SCC(=O)O)nnc2n1 [CBK027406]	108

Compound	viability at 28.5 h, 10 µM [%]
Cc1nn(CCCC(=O)Nc2sc3c(c2C#N)CCC(C(C)(C)C)C3)c(C)c1[N+](=O)[O-] (stereo not drawn) [CBK268982]	103
O=C(CC1S/C(=N/N=C/c2ccc(-c3ccc(Cl)c([N+](=O)[O-])c3)o2)NC1=O)Nc1ccccc1 (stereo not drawn) [CBK264473]	92.9
O=c1ccc2ccc(-c3cccc(OCc4ccccc4)c3)nc2[nH]1 [CBK073722]	95.9
C=CCNS(=O)(=O)c1ccc(NC(=O)Nc2ccc(Cl)cc2)cc1 [CBK269315]	101
OCCOc1ccccc1OCCO [CBK260930]	93.6
COc1cc(C(C)=O)ccc1OCCCN1CCC(O)(C(=O)c2cccc(C(F)(F)F)c2)CC1 [CBK024866C]	103
CCN(CC)C(=O)c1cn(CCC#N)nc1-c1cccc(OC)c1 [CBK305941]	92.6
O=C(O)CCC(=O)c1cccc([N+](=O)[O-])c1 [CBK263681]	101
O=C(Nc1cccnc1)N1CCN(c2ccccc2)CC1 [CBK145043]	89.5
O=C(C1CCCC1)N1CC(n2nc(-c3cccs3)ccc2=O)C1 [CBK283345]	86.8
COc1ccc(-c2cc3nnc(C)nc3s2)cc1 [CBK025638]	107
O=S(=O)(c1cccc2nonc12)N1CCCCCC1 [CBK265627]	102
N#C/C(=C/c1c[nH]c2ccccc12)c1n[nH]c(N)c1C#N [CBK262893]	70.4
Cc1cccc(CNC(=O)CC2CCN(Cc3cccc(C(F)(F)F)c3)CC2)n1 [CBK285950]	105
Cc1ccc(NC(=O)c2ccc3c(c2)C(=O)N(c2cccc(N4C(=O)c5ccc(C(=O)Nc6ccc(C)cc6)cc5C4=O)n2)C3=O)cc1 [CBK261198]	90.8
CCOC(=O)CN(Cc1ccccc1)Cc1cccc(OC)c1 [CBK126459]	96.4
COc1ccc(C(NC(=O)C2CCN(CCOc3ccc4ccccc4c3)CC2)c2ccccc2C)cn1 (stereo not drawn) [CBK148792]	73.1
O=C(CSCc1cccc(Br)c1)Nc1cccc2cccnc12 [CBK261204]	101
CCc1c(C)nc2c(NC(C)=O)cccc2c1SCCC(=O)O [CBK159594T]	106
O=C1NNC=Cc2c1cnc1nc(C(F)(F)F)nn21 [CBK288156]	93.3
FC(F)(F)c1ccc2[nH]c(Cn3cncn3)nc2c1 [CBK007335]	85.3
Cn1cc(/C=C(\C(=O)O)C(C(=O)O)=C2C3CC4CC(C3)CC2C4)c2ccccc21 [CBK263749]	96.5

Compound	viability at 28.5 h, 10 µM [%]
O=C(NCCc1ccccc1)NCCc1cccs1 [CBK045154]	114
Cc1cc(C(=O)N(CCC#N)Cc2cccs2)no1 [CBK057316]	112
CN(C)C(=O)Cc1ccc(Cn2ccnc(N3CCC(Sc4ccccc4)CC3)c2=O)cc1 [CBK153652]	112
Cc1nn(C)c(C)c1C1CCCN1CC(=O)NCc1ccccn1 (stereo not drawn) [CBK305501]	94.9
O=C(NCc1cccnc1-n1cccn1)c1c[nH]c(C(=O)N2CCCC2)c1 [CBK298263]	99.1
Cn1cc(C2CCCCCN2C(=O)c2nn(C)cc2Cl)cn1 (stereo not drawn) [CBK284972]	93.2
O=C(Nc1ccc(Cl)nc1)C(F)(F)F [CBK091339]	101
Cc1nc[nH]c1CN1CCCN(S(=O)(=O)c2ccc(C(F)(F)F)cc2Cl)CC1 [CBK063035]	112
CS(=O)(=O)c1ccc(Cn2ccnc(N3CCN(C(=O)Cc4cccs4)CC3)c2=O)cc1 [CBK153773]	89.9
CC(=O)Nc1ccc(C(=O)Nc2ccc(S(N)(=O)=O)cc2)cc1 [CBK261600]	95.3
Cc1nnnn1-c1cc(NC(=O)NCCCc2nc[nH]n2)ccc1F [CBK304102]	87.7
Cc1ccc(OCCn2ccnc(N3CCNCC3)c2=O)c([N+](=O)[O-])n1 [CBK001381C]	88.1
NNc1nc(-c2ccccc2)cc(-c2ccc(Br)cc2)n1 [CBK261795]	107
COc1ccc(C(NC(=O)C2CCN(Cc3ccc(OC)c(OC)c3)CC2)c2ccccc2C)cn1 (stereo not drawn) [CBK081452T]	99.7
O=C(O)c1ccc(-c2ccc(/C=c3\sc4nc5ccccc5n4c3=O)o2)cc1 [CBK261817]	99.3
C[C@H]1[C@@H]2[C@@H](O)C([C@H](C)C(=O)NC3CC3)CC[C@@]2(C)CC[C@@H]1NC(=O)c1cncnc1 (stereo partly drawn) [CBK289453]	91.5
O=C(COc1ccc(-c2ccccc2)cc1)N1CCN(S(=O)(=O)c2ccccc2[N+](=O)[O-])CC1 [CBK264154]	93
O=C(CSc1nc(-c2ccc(F)cc2)cc(C(F)(F)F)n1)NCCN1CCOCC1 [CBK266121]	99.6
CC(C)(C)C(=O)Nc1ccc(-c2nc3ccc(Cc4ccc5nc(-c6ccc(NC(=O)C(C)(C)C)cc6)oc(=O)c5c4)cc3c(=O)o2)cc1 [CBK261396]	104
COc1ccc(C(=O)N2CCC3(CCCN(CC(=O)Nc4ncccn4)C3)C2)cc1OC (stereo not drawn) [CBK132860]	105
O=C(NCc1cccnc1)C(=O)Nc1cc2c3c(c1)CCC(=O)N3CCC2 [CBK287728]	92

Source: publication PMC12040169 (PLOS Biology, 2025)
